# Source: patent US11236084B2, “Substituted azaindoline derivatives as NIK inhibitors” (Janssen Pharmaceutica NV, priority 2017, dated 2022)
# Where two headings read alike, the source gives them in different places.
# Biological target: recombinant human NF-kappaB-inducing kinase (NIK/MAP3K14) (Homo sapiens, UniProt Q99558)
# Test: Biological Assay B: inhibition of auto-phosphorylation of recombinant human NIK/MAP3K14 (AlphaScreen), performed at 2 locations
# Format: biochemical
# Conditions: averaged values
# Description: Inhibition of Auto-Phosphorylation of Recombinant Human NF-kappaB-Inducing Kinase (NIK/MAP3K14) Activity (AlphaScreen®)
# NIK/MAP3K14 auto-phosphorylation activity was measured using the AlphaScreen® (αscreen) format (Perkin Elmer). All compounds tested were dissolved in dimethyl sulfoxide (DMSO) and further dilutions were made in assay buffer. Final DMSO concentration was 1% (v/v) in assays. Assay buffer was 50 mM Tris pH 7.5 containing 1 mM EGTA (ethylene glycol tetraacetic acid), 1 mM DTT (dithiothreitol), 0.1 mM Na3VO4, 5 mM MgCl2, 0.01% Tween® 20. Assays were carried out in 384 well Alphaplates (Perkin Elmer). Incubations consisted of compound, 25 microM Adenosine-5′-triphosphate (ATP), and 0.2 nM NIK/MAP3K14. Incubations were initiated by addition of GST-tagged NIK/MAP3K14 enzyme, carried out for 1 h at 25° C. and terminated by addition of stop buffer containing anti-phospho-IKK Ser176/180 antibody. Protein A Acceptor and Glutathione-Donor beads were added before reading using an EnVision® Multilabel Plate Reader (Perkin Elmer). Signal obtained in the wells containing blank samples was subtracted from all other wells and IC50's were determined by fitting a sigmoidal curve to % inhibition of control versus Log10 compound concentration.
# Assay B was performed at 2 different locations.
# Data for the compounds of the invention in the above assays are provided in Table A (the values in Table are averaged values over all measurements on all batches of a compound; values as IC50 (nM)). (‘n.c.’ means not calculated: ‘Co.’ means compound)
# [1] = location 1, AlphaScreen auto-phosphorylation, read-out: Assay B location 1 IC50
# [2] = location 2, AlphaScreen auto-phosphorylation, read-out: Assay B location 2 IC50
# recombinant human NF-kappaB-inducing kinase (NIK/MAP3K14), sequence (Q99558 whole entry): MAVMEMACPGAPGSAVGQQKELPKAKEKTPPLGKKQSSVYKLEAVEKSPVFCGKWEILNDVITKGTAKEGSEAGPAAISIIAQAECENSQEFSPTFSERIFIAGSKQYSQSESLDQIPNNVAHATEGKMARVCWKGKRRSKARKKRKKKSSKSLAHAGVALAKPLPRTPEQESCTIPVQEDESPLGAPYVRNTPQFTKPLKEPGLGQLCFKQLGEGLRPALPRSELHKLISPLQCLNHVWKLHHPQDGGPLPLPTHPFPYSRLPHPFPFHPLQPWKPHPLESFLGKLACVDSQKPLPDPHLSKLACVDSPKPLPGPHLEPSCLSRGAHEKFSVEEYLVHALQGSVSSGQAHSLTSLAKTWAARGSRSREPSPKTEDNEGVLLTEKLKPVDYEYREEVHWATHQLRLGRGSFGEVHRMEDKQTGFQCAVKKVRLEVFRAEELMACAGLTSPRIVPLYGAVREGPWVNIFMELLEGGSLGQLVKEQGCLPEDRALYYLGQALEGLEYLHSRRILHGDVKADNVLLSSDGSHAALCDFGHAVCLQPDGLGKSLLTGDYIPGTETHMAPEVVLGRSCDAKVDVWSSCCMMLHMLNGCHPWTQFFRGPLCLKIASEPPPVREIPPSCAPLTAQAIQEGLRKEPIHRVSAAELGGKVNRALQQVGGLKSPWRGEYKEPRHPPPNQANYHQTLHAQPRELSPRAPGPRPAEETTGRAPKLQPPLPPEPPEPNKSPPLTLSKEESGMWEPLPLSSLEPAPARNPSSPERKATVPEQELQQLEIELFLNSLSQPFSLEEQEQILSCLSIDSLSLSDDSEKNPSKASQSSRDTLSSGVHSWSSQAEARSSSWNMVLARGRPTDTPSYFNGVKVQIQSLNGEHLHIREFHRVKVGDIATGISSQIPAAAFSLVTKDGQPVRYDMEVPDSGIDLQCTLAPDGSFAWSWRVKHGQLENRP
SMILES,IC50 [1],IC50 [2],"IC50 (location 1, NIK auto-phosphorylation, AlphaScreen, read-out: Assay B location 1 IC50)"
CCN1CCC(Oc2ccc(Nc3nccc(-c4cnc5c(c4)C(C)(CO)CN5)n3)c(OC)c2)C1 (stereo not shown) [Compound 233],32.4 nM,33.1 nM,
COc1cc(CN2CCOCC2)c(Cl)cc1Nc1nccc(-c2cnc3c(c2)C(C)(CO)CN3)n1 (stereo not shown) [Compound 324],7.9 nM,3.8 nM,
CCC1(CC#N)CNc2ncc(-c3ccnc(Nc4ccc(C(=O)NC5CCOCC5)cc4OC)n3)cc21 (stereo not shown) [Compound 154],,19.1 nM,
CC1(CO)CNc2ncc(-c3ccnc(Nc4cc(Cl)c(N5CCOCC5)cc4Cl)n3)cc21 (stereo not shown) [Compound 362],6.9 nM,3.6 nM,
COCCOc1cc(N2CCOCC2)c(C#N)cc1Nc1nccc(-c2cnc3c(c2)C(C)(CO)CN3)n1 (stereo not shown) [Compound 369],123 nM,64.6 nM,
COc1cc(N2CCC2)c(Cl)cc1Nc1nccc(-c2cnc3c(c2)C(C)(CO)CN3)n1 (stereo not shown) [Compound 294],12 nM,2.3 nM,
"CC1(CO)CNc2ncc(-c3ccnc(Nc4cc(Cl)c(N5CCOCC5)cc4Cl)n3)cc21 (single isomer, unassigned) [Compound 265]",47.9 nM,35.5 nM,
COc1cc(OC2CCN(C)CC2)c(F)cc1Nc1nccc(-c2cnc3c(c2)C(C)(CO)CN3)n1 (stereo not shown) [Compound 283],5.3 nM,2.8 nM,
"COc1cc(N2CC(OC)C2)c(F)cc1Nc1nccc(-c2cnc3c(c2)C(C)(CO)CN3)n1 (single isomer, unassigned) [Compound 298]",8.1 nM,2.3 nM,
COc1cc(N2CCN(C)CC2)c(C#N)cc1Nc1nccc(-c2cnc3c(c2)C(C)(CO)CN3)n1 (stereo not shown) [Compound 280],6.9 nM,2.5 nM,
COc1cc(OCCN2CCOCC2)ccc1Nc1nccc(-c2cnc3c(c2)C(C)(CO)CN3)n1 (stereo not shown) [Compound 218],,15.1 nM,
"CCN1CCN(c2cc(OC)c(Nc3nccc(-c4cnc5c(c4)C(C)(CO)CN5)n3)cc2Cl)CC1 (single isomer, unassigned) [Compound 295]",12.3 nM,5.1 nM,
COc1cc(N2CC(OC)C2)c(F)cc1Nc1nccc(-c2cnc3c(c2)C(C)(CO)CN3)n1 (stereo not shown) [Compound 270],21.4 nM,5.8 nM,
COc1cc(C(=O)N2CCC(OC)C2)c(Cl)cc1Nc1nccc(-c2cnc3c(c2)C(C)(C)CN3)n1 (stereo not shown) [Compound 292],4.3 nM,1.6 nM,
Cc1cc(N2CC3(CCOCC3)C2)c(F)cc1Nc1nccc(-c2cnc3c(c2)C(C)(CO)CN3)n1 (stereo not shown) [Compound 281],15.9 nM,3 nM,
COCCN1CC(c2cc(OC)c(Nc3nccc(-c4cnc5c(c4)C(C)(CO)CN5)n3)cc2Cl)C1 (stereo not shown) [Compound 321],3.6 nM,1.6 nM,
"CN(C)CCOc1cc(N2CCOCC2)c(F)cc1Nc1nccc(-c2cnc3c(c2)C(C)(CO)CN3)n1 (single isomer, unassigned) [Compound 286]",7240 nM,3390 nM,
CCN1CCN(c2cc(OC)c(Nc3nccc(-c4cnc5c(c4)C(C)(C)CN5)n3)cc2Cl)CC1 [Compound 329],3.8 nM,1.7 nM,
"COc1cc(N2CCN(C)CC2)c(Cl)cc1Nc1nccc(-c2cnc3c(c2)C(C)(CO)CN3)n1 (single isomer, unassigned) [Compound 291]",1.4 nM,0.5 nM,
"COc1cc(N2CC(OC)C2)c(F)cc1Nc1nccc(-c2cnc3c(c2)C(C)(CO)CN3)n1 (single isomer, unassigned) [Compound 288]",112 nM,57.5 nM,
"CC1(CO)CNc2ncc(-c3ccnc(Nc4cc(Cl)c(N5CCOCC5)cc4Cl)n3)cc21 (single isomer, unassigned) [Compound 266]",5 nM,1.9 nM,
COc1cc(N2CC(C)(O)C2)c(Cl)cc1Nc1nccc(-c2cnc3c(c2)C(C)(CO)CN3)n1 (stereo not shown) [Compound 313],6.9 nM,4.9 nM,
COc1cc(N2CC3(CCOCC3)C2)c(Cl)cc1Nc1ncc(F)c(-c2cnc3c(c2)C(C)(CO)CN3)n1 (stereo not shown) [Compound 346],,,7.4 nM
COc1cc(N2CCC(N(C)C)CC2)c(Cl)cc1Nc1nccc(-c2cnc3c(c2)C(C)(C)CN3)n1 [Compound 330],3.6 nM,0.7 nM,
COCCN(C)c1cc(OC)c(Nc2nccc(-c3cnc4c(c3)C(C)(CO)CN4)n2)cc1Cl (stereo not shown) [Compound 5],6.3 nM,4.1 nM,
COc1cc(OCCN(C)C)c(Cl)cc1Nc1nccc(-c2cnc3c(c2)C(C)(CO)CN3)n1 (stereo not shown) [Compound 314],4.1 nM,3.1 nM,

# Results, then the compound that gave them:
IC50 [1],IC50 [2],"IC50 (location 1, NIK auto-phosphorylation, AlphaScreen, read-out: Assay B location 1 IC50)",SMILES
7.4 nM,6.6 nM,,COc1cc(Cl)c(C)c(Nc2nccc(-c3cnc4c(c3)C(C)(CO)CN4)n2)c1 (stereo not shown) [Compound 230]
72.4 nM,41.7 nM,,CC1(CO)CNc2ncc(-c3ccnc(Nc4cccc(Cl)c4Cl)n3)cc21 (stereo not shown) [Compound 227]
6.6 nM,6 nM,,"Cc1cc(N2CCOCC2)c(C#N)cc1Nc1nccc(-c2cnc3c(c2)C(C)(CO)CN3)n1 (single isomer, unassigned) [Compound 264]"
,2.2 nM,,COc1ccc(C#N)cc1Nc1nccc(-c2cnc3c(c2)C(C)(CO)CN3)n1 (stereo not shown) [Compound 190]
117 nM,70.8 nM,,"CC1(CO)CNc2ncc(-c3ccnc(Nc4cc(C#N)c(N5CCOCC5)cc4Cl)n3)cc21 (single isomer, unassigned) [Compound 260]"
,18.6 nM,,COc1cc(C(=O)NC(C)(C)CO)ccc1Nc1nccc(-c2cnc3c(c2)C(C)(CO)CN3)n1 (stereo not shown) [Compound 160]
,5.1 nM,,CC1(CO)CNc2ncc(-c3ccnc(Nc4cc(C#N)ccc4Cl)n3)cc21 (stereo not shown) [Compound 205]
,10.5 nM,,COc1ccc(NC(C)=O)cc1Nc1nccc(-c2cnc3c(c2)C(C)(CO)CN3)n1 (stereo not shown) [Compound 221]
,1.3 nM,,"COc1ccc(C#N)cc1Nc1nccc(-c2cnc3c(c2)C(C)(CO)CN3)n1 (single isomer, unassigned) [Compound 248]"
,5 nM,,Cc1ccc(C#N)cc1Nc1nccc(-c2cnc3c(c2)C(C)(CO)CN3)n1 (stereo not shown) [Compound 208]
,18.2 nM,,COCc1ccc(Nc2nccc(-c3cnc4c(c3)C(C)(CO)CN4)n2)c(OC)c1 (stereo not shown) [Compound 166]
45.7 nM,37.2 nM,,COc1cc(OC2CCN(C)C2)ccc1Nc1nccc(-c2cnc3c(c2)C(C)(CO)CN3)n1 (stereo not shown) [Compound 229]
,49 nM,,COc1ccc(C2CC2)cc1Nc1nccc(-c2cnc3c(c2)C(C)(CO)CN3)n1 (stereo not shown) [Compound 195]
,23.4 nM,,COc1cc(CN2CCOCC2)ccc1Nc1nccc(-c2cnc3c(c2)C(C)(CO)CN3)n1 (stereo not shown) [Compound 165]
17.8 nM,10.7 nM,,Cc1cc(N2CCOCC2)c(C#N)cc1Nc1nccc(-c2cnc3c(c2)C(C)(CO)CN3)n1 (stereo not shown) [Compound 363]
7.8 nM,3.7 nM,,Cc1cc(N2CCOCC2)c(Cl)cc1Nc1nccc(-c2cnc3c(c2)C(C)(CO)CN3)n1 (stereo not shown) [Compound 361]

IC50 [1],IC50 [2],"IC50 (location 1, NIK auto-phosphorylation, AlphaScreen, read-out: Assay B location 1 IC50)",SMILES
,40.7 nM,,COc1cc(CN(C)C)ccc1Nc1nccc(-c2cnc3c(c2)C(C)(CO)CN3)n1 (stereo not shown) [Compound 186]
389 nM,355 nM,,COc1ccc(-c2cnn(C)c2)cc1Nc1nccc(-c2cnc3c(c2)C(C)(CO)CN3)n1 (stereo not shown) [Compound 239]
,3.6 nM,,COc1cccc(Nc2nccc(-c3cnc4c(c3)C(C)(CO)CN4)n2)c1 (stereo not shown) [Compound 168]
,4 nM,,CC1(CO)CNc2ncc(-c3ccnc(Nc4cc(Cl)ccc4Cl)n3)cc21 (stereo not shown) [Compound 196]
61.7 nM,38.9 nM,,[2H]C([2H])([2H])c1ccccc1Nc1nccc(-c2cnc3c(c2)C(C)(CO)CN3)n1 (stereo not shown) [Compound 234]
91.2 nM,25.7 nM,,"Cc1cc(N2CCOCC2)c(Cl)cc1Nc1nccc(-c2cnc3c(c2)C(C)(CO)CN3)n1 (single isomer, unassigned) [Compound 258]"
,1.1 nM,,COc1cc(CO)c(Cl)cc1Nc1nccc(-c2cnc3c(c2)C(C)(CO)CN3)n1 (stereo not shown) [Compound 332]
,18.2 nM,,COc1cc(N2CCN(C)CC2)ccc1Nc1nccc(-c2cnc3c(c2)C(C)(CO)CN3)n1 (stereo not shown) [Compound 187]
,12.3 nM,,COc1cc(N2CCOCC2)ccc1Nc1nccc(-c2cnc3c(c2)C(C)(CO)CN3)n1 (stereo not shown) [Compound 171]
45.7 nM,27.6 nM,,COc1cc(-c2cncn2C)ccc1Nc1nccc(-c2cnc3c(c2)C(C)(CO)CN3)n1 (stereo not shown) [Compound 170]
1860 nM,~3090 nM,,COc1ccc(N2CCOCC2)cc1Nc1nccc(-c2cnc3c(c2)C(C)(CO)CN3)n1 (stereo not shown) [Compound 241]
,2.5 nM,,COc1ccc(C)c(Nc2nccc(-c3cnc4c(c3)C(C)(CO)CN4)n2)c1 (stereo not shown) [Compound 220]
,11.2 nM,,CC1(CO)CNc2ncc(-c3ccnc(Nc4cc(F)ccc4Cl)n3)cc21 (stereo not shown) [Compound 197]
55 nM,36.3 nM,,"COc1cc(N2CCOCC2)c(C#N)cc1Nc1nccc(-c2cnc3c(c2)C(C)(CO)CN3)n1 (single isomer, unassigned) [Compound 4R]"
,10 nM,,COc1ccc(C(F)(F)F)cc1Nc1nccc(-c2cnc3c(c2)C(C)(CO)CN3)n1 (stereo not shown) [Compound 173]
,2.6 nM,,COc1ccc(Cl)c(Nc2nccc(-c3cnc4c(c3)C(C)(CO)CN4)n2)c1 (stereo not shown) [Compound 222]
